Assay results reported in ChEMBL document CHEMBL1126056, “Asymmetric synthesis of 1,3-dioxolane-pyrimidine nucleosides and their anti-HIV activity” (J Med Chem, 1992).

What was measured:
[1] = Cytotoxicity in peripheral blood mononuclear cells (PBM).; assay type: functional, cell-based; settings: Homo sapiens
[2] = Effective concentration against HIV-1 in peripheral blood mononuclear cells (PBM).; assay type: functional, Homo sapiens
Vero = experiment: Cytotoxicity in vero cells.; assay type: functional, cell-based; settings: Chlorocebus sabaeus
[3] = The compound was tested for antiviral activity against AZT resistant strain 9F HIV in PBM cells.; assay type: functional, cell-based; settings: Homo sapiens, PBMC
[4] = The compound was tested for antiviral activity against AZT sensitive strain 9F HIV in PBM cells.; assay type: functional, cell-based; settings: Homo sapiens, PBMC
[5] = The compound was tested for antiviral activity against AZT resistant strain 10 HIV in PBM cells.; assay type: functional; settings: Homo sapiens, PBMC
[6] = The compound was tested for antiviral activity against AZT sensitive 10 HIV in PBM cells.; assay type: functional; settings: Homo sapiens, PBMC
[7] = Effective concentration against HIV-1 in peripheral blood mononuclear cells(PBM).; assay type: functional, Homo sapiens
[8] = Cytotoxicity in peripheral blood mononuclear cells(PBM).; assay type: functional, cell-based; settings: Homo sapiens
[9] = Cytotoxicity in peripheral blood mononuclear; assay type: functional, Homo sapiens

| SMILES | IC50 [1] | EC50 [2] | IC50 (Vero) | further results |
| --- | --- | --- | --- | --- |
| O=c1[nH]c(=O)n([C@H]2CO[C@@H](CO)O2)cc1F | > 100 µM | 69.6 µM | > 100 µM | – |
| Nc1ccn([C@H]2CO[C@@H](CO)O2)c(=O)n1 | 62 µM | 0.16 µM | 8.3 µM | – |
| O=c1ccn([C@H]2CO[C@@H](CO)O2)c(=O)[nH]1 | > 100 µM | > 100 µM | > 100 µM | – |
| O=c1[nH]c(=O)n([C@@H]2CO[C@@H](CO)O2)cc1I | > 100 µM | > 100 µM | > 100 µM | – |
| Cc1cn([C@H]2C[C@H](N=[N+]=[N-])[C@@H](CO)O2)c(=O)[nH]c1=O [ZIDOVUDINE] | > 100 µM | – | 28 µM | EC50 [3]: 1.2 µM; EC50 [4]: 0.0012 µM; EC90 [5]: 19 µM; EC90 [6]: 0.0065 µM; EC50 [7]: 0.009 µM |
| O=c1[nH]c(=O)n([C@H]2CO[C@@H](CO)O2)cc1I | > 100 µM | > 100 µM | > 100 µM | – |
| O=c1[nH]c(=O)n([C@@H]2CO[C@@H](CO)O2)cc1Br | – | – | > 100 µM | IC50 [8]: > 100 µM; EC50 [7]: > 100 µM |
| O=c1[nH]c(=O)n([C@@H]2CO[C@@H](CO)O2)cc1Cl | > 100 µM | > 100 µM | > 100 µM | – |
| Nc1ccn([C@@H]2CO[C@@H](CO)O2)c(=O)n1 | > 100 µM | 2.4 µM | > 100 µM | – |
| O=c1ccn([C@@H]2CO[C@@H](CO)O2)c(=O)[nH]1 | > 100 µM | > 100 µM | > 100 µM | – |
| O=c1[nH]c(=O)n([C@@H]2CO[C@@H](CO)O2)cc1F | > 100 µM | > 100 µM | > 100 µM | – |
| O=c1[nH]c(=O)n([C@H]2CO[C@@H](CO)O2)cc1Cl | – | 6.8 µM | > 100 µM | IC50 [9]: > 100 µM |
| O=c1[nH]c(=O)n([C@H]2CO[C@@H](CO)O2)cc1Br | – | – | > 100 µM | IC50 [8]: > 100 µM; EC50 [7]: 9.3 µM |
